Like-named read-outs stand apart in the source and are kept apart here.
Biological target: T1, Menin-MLL (Homo sapiens, UniProt O00255)
T1 construct: His-Menin (M1-L615 end); purchased BIORTUS BP9210
T1 sequence (O00255 1-615 isoform O00255-1): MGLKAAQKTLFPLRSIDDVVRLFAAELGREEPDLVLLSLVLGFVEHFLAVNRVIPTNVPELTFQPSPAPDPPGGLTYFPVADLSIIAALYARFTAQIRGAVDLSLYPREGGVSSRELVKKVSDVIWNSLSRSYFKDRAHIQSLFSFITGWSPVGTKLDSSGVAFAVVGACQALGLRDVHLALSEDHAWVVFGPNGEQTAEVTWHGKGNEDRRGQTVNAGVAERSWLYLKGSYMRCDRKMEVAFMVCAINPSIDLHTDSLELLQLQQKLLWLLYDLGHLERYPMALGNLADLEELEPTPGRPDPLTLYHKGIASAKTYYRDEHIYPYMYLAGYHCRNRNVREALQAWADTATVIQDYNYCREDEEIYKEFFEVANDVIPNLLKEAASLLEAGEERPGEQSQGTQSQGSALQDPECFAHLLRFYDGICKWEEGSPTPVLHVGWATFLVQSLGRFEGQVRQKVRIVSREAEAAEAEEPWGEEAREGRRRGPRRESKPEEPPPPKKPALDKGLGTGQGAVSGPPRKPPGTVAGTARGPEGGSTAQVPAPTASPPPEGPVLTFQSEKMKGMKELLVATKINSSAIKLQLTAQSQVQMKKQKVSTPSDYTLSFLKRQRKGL
Assay: Inhibitory activity against Menin-MLL binding (fluorescence polarization)
Settings: 150 nM His-Menin, 15 nM FITC-MLL, 25°C for 60 min
How it was run: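 Fluorescence polarization competition: compound and 150 nM His-tagged menin (residues M1-L615) sit 15 min at 25 °C in pH 7.5 HEPES buffer with NaCl, DTT and BSA; 15 nM FITC-labelled MLL peptide then binds for 60 min. IC50 fitted sigmoidally from mP values, duplicate wells.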

[1] = fluorescence polarization, read-out: Menin-MLL IC50
[2] = Menin-MLL IC50, fluorescence polarization

Row | Structure (SMILES) | IC50 [1] [µM] | also measured
1 | CCN(C(=O)c1cc(F)ccc1-c1cc(C2CN([C@@H](CN3CCN(C)CC3)C(C)C)C2)cc2c1cnn2C)C(C)C [Example 402-1, N-ethyl-5-fluoro-2-(1-methyl-6-{1-[(2R)-3-methyl-1-(4-methylpiperazin-1-yl)butan-2-yl]azacyclobutan-3-yl}-1H-indazol-4-yl)-N-(isopropyl)benzamide] | 0.11 | –
2 | COc1cc(-c2ccc(CCN3CCN(c4cc(-c5ccc(F)cc5C(=O)N5CCOC[C@H]5C)c5cnc(C)n5c4)CC3)cc2)nnc1OC [Example 86] | 0.152 | –
3 | CCC(=O)N1CCC([C@@H](C)N2CC(c3cc(-c4ccc(F)cc4C(=O)N4CCOC[C@H]4C)c4cnc(C)n4c3)C2)CC1 [Example 319-2, 1-{4-[(1R)-1-[3-(8-{4-fluoro-2-[(3R)-3-methylmorpholin-4-carbonyl]phenyl}-3-methylimidazo[1,5-a]pyridin-6-yl)azacyclobutan-1-yl]ethyl]piperidin-1-yl}propan-1-one] | 0.328 | –
4 | CCN(C(=O)c1cc(F)ccc1-c1cc(N2CCN(C(=O)C3NC4CCC3CC4)CC2)cn2c(C=O)ncc12)C(C)C [Example 76, N-ethyl-5-fluoro-2-(3-formyl-6-{4-[(1R,3S,4S)-2-azabicyclo[2.2.2]octan-3-carbonyl]piperazin-1-yl}imidazo[1,5-a]pyridin-8-yl)-N-(isopropyl)benzamide] | – | IC50 [2]: 0.04 µM
5 | CCS(=O)(=O)N[C@@H]1CC[C@@H](CN2CC(c3cc(-c4ccc(F)cc4C(=O)N(CC(F)F)C(C)C)c4cnn(C)c4c3)C2)OC1 [Example 152, N-(2,2-difluoroethyl)-2-[6-(1-{[(2S,5R)-5-ethanesulfonamidooxacyclohexan-2-yl]methyl}azacyclobutan-3-yl)-1-methyl-1H-indazol-4-yl]-5-fluoro-N-(isopropyl)benzamide] | 0.0745 | –
6 | CC[C@H](C1CCN(C(C)=O)CC1)N1CC(c2cc(-c3ccc(F)cc3C(=O)N3CCOC[C@H]3C)c3c(F)nc(C)n3c2)C1 [Example 280-2, 1-{4-[(1R)-1-[3-(1-fluoro-8-{4-fluoro-2-[(3R)-3-methylmorpholin-4-carbonyl]phenyl}-3-methylimidazo[1,5-a]pyridin-6-yl)azacyclobutan-1-yl]propyl]piperidin-1-yl}ethan-1-one] | 0.16 | –
7 | CC(=O)N1CCC([C@@H](C)N2CC(c3cc(-c4ccc(F)cc4C(=O)N4CCOC[C@H]4C)c4c(F)nc(C)n4c3)C2)CC1 [Example 257-1, 1-{4-[(1R)-1-[3-(1-fluoro-8-{4-fluoro-2-[(3R)-3-methylmorpholin-4-carbonyl]phenyl}-3-methylimidazo[1,5-a]pyridin-6-yl)azacyclobutan-1-yl]ethyl]piperidin-1-yl}ethan-1-one] | 0.131 | –
8 | CCN(C(=O)c1cc(F)ccc1-c1cc(C2(F)CN(C(=O)[C@H]3N[C@@H]4CC[C@H]3C4)C2)cn2cncc12)C(C)C [Example 34, 2-(6-{1-[(1R,3S,4S)-2-azabicyclo[2.2.1]heptan-3-carbonyl]-3-fluoroazacyclobutan-3-yl}imidazo[1,5-a]pyridin-8-yl)-N-ethyl-5-fluoro-N-(isopropyl)benzamide] | 0.168 | –
9 | CCN(C(=O)c1cc(F)ccc1-c1cc(C2(O)CN([C@@H](CCCN3CCN(CCO)CC3)C(C)C)C2)cn2c(C)ncc12)C(C)C [Example 464-2, N-ethyl-5-fluoro-2-(6-{3-hydroxyl-1-[(3S)-6-[4-(2-hydroxylethyl)piperazin-1-yl]-2-methylhexan-3-yl]azacyclobutan-3-yl}-3-methylimidazo[1,5-a]pyridin-8-yl)-N-(isopropyl)benzamide] | 0.19 | –
10 | COC1(C(=O)N2CCC(CN3CC(c4cc(-c5ccc(F)cc5C(=O)N5CCOC[C@H]5C)c5c(F)nc(C)n5c4)C3)CC2)CC1 [Example 262] | 0.257 | –
11 | CCS(=O)(=O)N[C@H]1CC[C@@H](CN2CC(c3cc(-c4ccc(F)cc4C(=O)N4[C@H](C)COC[C@H]4C)c4c(F)nc(C)n4c3)C2)CC1 [Example 198, N-[(1s,4s)-4-{[3-(8-{2-[(3R,5R)-3,5-dimethylmorpholin-4-carbonyl]-4-fluorophenyl}-1-fluoro-3-methylimidazo[1,5-a]pyridin-6-yl)azacyclobutan-1-yl]methyl}cyclohexyl]ethan-1-sulfonamide] | – | IC50 (read-out: Menin-MLL IC50, fluorescence polarization): 0.004 µM
12 | CCN(C(=O)c1cc(F)ccc1-c1cc(C2(F)CCN(C[C@]3(O)CC[C@@H](NS(=O)(=O)CC)CC3)C2)cc2c1cnn2C)C(C)C (stereo partly drawn) [Compound 68, N-ethyl-5-fluoro-2-[6-(3-fluoro-1-{[(1s,4s)-4-ethanesulfonamido-1-hydroxylcyclohexyl]methyl}pyrrolidin-3-yl)-1-methyl-1H-indazol-4-yl]-N-(isopropyl)benzamide] | – | IC50 [2]: 0.298 µM
13 | CCN(C(=O)c1cc(F)ccc1-c1cc(N2CCN(CCc3ccc(-c4cc(OC)c(OC)nn4)cc3)CC2)cn2c(C)ncc12)C(C)C [Compound 70, 2-[6-(4-{2-[4-(5,6-dimethoxypyridazin-3-yl)phenyl]ethyl}piperazin-1-yl)-3-methylimidazo[1,5-a]pyridin-8-yl]-N-ethyl-5-fluoro-N-(isopropyl)benzamide] | 0.093 | –
14 | C=C1C[C@@H]2CC[C@H]1[C@@H](C(=O)N1CCC(c3cc(-c4ccc(F)cc4C(=O)N(CC)C(C)C)c4cncn4c3)C1)N2 (stereo partly drawn) [Example 23, N-ethyl-5-fluoro-2-(6-{1-[(1S,3S,4R)-5-methylene-2-azabicyclo[2.2.2]octan-3-carbonyl]pyrrolidin-3-yl}imidazo[1,5-a]pyridin-8-yl)-N-(isopropyl)benzamide] | 0.102 | –

More lines, main results first:

Row | IC50 [1] [µM] | Structure (SMILES) | also measured
15 | 0.033 | CC(=O)N1CCN(CCC[C@H](C(C)C)N2CC(c3cc(-c4ccc(F)cc4C(=O)N4CCOC[C@H]4C)c4c(F)nc(C)n4c3)C2)CC12CC2 [Example 340] | –
16 | 0.023 | Cc1nc(F)c2c(-c3ccc(F)cc3C(=O)N(CC(F)F)C(C)C)cc(C3CN(C(=O)[C@@H]4C[C@@H](C)CCN4)C3)cn12 [Example 155] | –
17 | 0.0031 | CCN(C(=O)c1cc(F)ccc1-c1cc(C2CN([C@H](CCCN3CCN(C4CC4)CC3)C(C)C)C2)cn2c(C)ncc12)C(C)C [Example 376] | –
18 | 0.007 | CCN(C(=O)c1cc(F)ccc1-c1cc(C2CN(C(C)C3CCN(C(C)=O)CC3)C2)cn2c(C)ncc12)C(C)C (stereo not drawn) [Example 281] | –
19 | 0.0495 | Cc1nc(F)c2c(-c3ccc(F)cc3C(=O)N3CCOC[C@H]3C)cc(C3CN(CC4CCCOC4)C3)cn12 (stereo partly drawn) [Example 235] | –
20 | 0.0022 | CCN(C(=O)c1cc(F)ccc1-c1cc(C2CN([C@H](CCCN3CCN(C4(C#N)COC4)CC3)C(C)C)C2)cn2c(C)ncc12)C(C)C [Example 487, 2-(6-{1-[(3R)-6-[4-(3-cyanooxacyclobutan-3-yl)piperazin-1-yl]-2-methylhexan-3-yl]azacyclobutan-3-yl}-3-methylimidazo[1,5-a]pyridin-8-yl)-N-ethyl-5-fluoro-N-(isopropyl)benzamide] | –
21 | 0.0077 | CCN(C(=O)c1cc(F)ccc1-c1cc(C2CN([C@H](CCCN3CCN(C(=O)OC(C)(C)C)CC3)C(C)C)C2)cn2c(C)ncc12)C(C)C [Example 454-1, 4-[(4R)-4-[3-(8-{2-[ethyl(isopropyl)aminoformyl]-4-fluorophenyl}-3-methylimidazo[1,5-a]pyridin-6-yl)azacyclobutan-1-yl]-5-methylhexyl]piperazin-1-tert-butyl carboxylate] | –

From patent EP4782453A1 (Beyang Therapeutics Co., Ltd., priority 2023, dated 2025)
